Values after ≈ are worked out from the molar mass of the structure shown.
Legend:
Format in all cases: functional
[1] = system: Bacillus pumilus; assay: Antibacterial activity against Bacillus pumilus 11778 clinical isolate assessed as growth inhibition after 24 hr by agar dilution method; details: Bacillus pumilus, 11778, 24 h
[2] = system: Shigella dysenteriae; assay: Antibacterial activity against Shigella dysenteriae 15 clinical isolate assessed as growth inhibition after 24 hr by agar dilution method; details: Shigella dysenteriae, 15, 24 h
[3] = system: Staphylococcus aureus; assay: Antibacterial activity against Staphylococcus aureus 29737 clinical isolate assessed as growth inhibition after 24 hr by agar dilution method; details: Staphylococcus aureus, 29737, 24 h

SMILES: CC1(C)S[C@@H]2[C@H](NC(=O)[C@H](N)c3ccc(O)cc3)C(=O)N2[C@H]1C(=O)O [AMOXICILLIN]
- MIC [1]: 500 µg/mL (≈ 1370 µM)
- MIC [2]: 10000 µg/mL (≈ 27400 µM)
- MIC [3]: 500 µg/mL (≈ 1370 µM)
